Measurements from the supplement of paper PMC10307832.

Key:
Assay in all cases: relative viability (nuclei count vs DMSO), 5 days (fraction); higher = more cells survive
[1] = compound: CC1(C)CNc2cc(NC(=O)c3cccnc3NCc3ccncc3)ccc21 [Motesanib] + CC(=O)Nc1cccc(-n2c(=O)n(C3CC3)c(=O)c3c(Nc4ccc(I)cc4F)n(C)c(=O)c(C)c32)c1 [Trametinib] (partner 0.02 µM)
Summary of the method: (§1)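 Cells from lung cancer lines were seeded into 1536-well plates and, one day later, dosed by pin tool. Treatments were either a single drug or a fixed dose of an anchor drug with five library-drug doses (not always all listed) in √10 steps. After 5 days, nuclei were stained in a one-step fixation (final 0.05% Triton X-100, 1% formaldehyde, 1 ug/ml Hoechst) and counted on 4× images, and relative viability is the treated-to-vehicle nuclei ratio, as the median of duplicate plates.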

[2] = compound: C[C@@]1(C(=O)Nc2ccc(F)nc2)CCCN1c1nc(Nc2cc(C3CC3)n[nH]2)c2cccn2n1 + CS(=O)(=O)N1CCN(Cc2cc3nc(-c4cccc5[nH]ncc45)nc(N4CCOCC4)c3s2)CC1 [Pictilisib] (partner 1 µM)
Summary of the method: as §1

[3] = compound: C[C@@]1(C(=O)Nc2ccc(F)nc2)CCCN1c1nc(Nc2cc(C3CC3)n[nH]2)c2cccn2n1 + COc1cccc2cc(-c3nc([C@H]4CC[C@H](C(=O)O)CC4)n4ncnc(N)c34)[nH]c12 [OSI-027] (partner 0.5 µM)
Summary of the method: as §1

[4] = compound: CC1(C)CNc2cc(NC(=O)c3cccnc3NCc3ccncc3)ccc21 [Motesanib] + Cc1nc(Nc2ncc(C(=O)Nc3c(C)cccc3Cl)s2)cc(N2CCN(CCO)CC2)n1 [Dasatinib] (partner 0.075 µM)
Summary of the method: as §1

UMC-11 gave a relative viability ([1]; first compound 0.01 µM) of 0.659, a relative viability ([1]; first compound 0.03162 µM) of 0.94 and a relative viability ([1]; first compound 0.1 µM) of 0.611. For the same cell line, the relative viability ([1]; first compound 0.3162 µM) was 0.744, the relative viability ([1]; first compound 1 µM) was 0.762 and the relative viability ([2]; first compound 0.04 µM) was 0.776. It also gave a relative viability ([2]; first compound 0.1265 µM) of 0.868, a relative viability ([2]; first compound 0.4 µM) of 0.805 and a relative viability ([2]; first compound 1.265 µM) of 0.723. The relative viability ([3]; first compound 0.04 µM) was 0.531, the relative viability ([3]; first compound 0.1265 µM) was 0.416 and the relative viability ([3]; first compound 0.4 µM) was 0.485. It also gave a relative viability ([3]; first compound 1.265 µM) of 0.37, a relative viability ([4]; first compound 0.01 µM) of 0.435 and a relative viability ([4]; first compound 0.03162 µM) of 0.447. It also gave a relative viability ([4]; first compound 0.1 µM) of 0.489, a relative viability ([4]; first compound 0.3162 µM) of 0.477 and a relative viability ([4]; first compound 1 µM) of 0.471.
